Test results reported in publication PMC4208647, “Essential role of vesicular nucleotide transporter in vesicular storage and release of nucleotides in platelets” (Physiological Reports, 2014).
Read-outs that look alike come from different tables or passages of the source.

Tests used:
Assay type in all cases: biochemical
[1] = target: T1, VMAT2 (vesicular monoamine transporter 2) (Rattus norvegicus, UniProt Q01827); experiment: inhibition of ATP-driven radiolabelled substrate uptake into proteoliposomes with F-ATPase
T1 construct: gene Slc18a2; recombinant, expressed in insect cells or E. coli, Ni-NTA purified, co-reconstituted with bacterial F-ATPase in liposomes
Excerpt: inhibition of ATP-driven radiolabelled substrate uptake into proteoliposomes with F-ATPase on VMAT2 (vesicular monoamine transporter 2)

[2] = target: T2, VEAT (vesicular excitatory amino acid transporter) (Mus musculus, UniProt Q8BN82); experiment: inhibition of valinomycin-evoked radiolabelled substrate uptake into proteoliposomes
T2 construct: gene Slc17a5; recombinant, expressed in insect cells or E. coli, Ni-NTA purified, reconstituted in asolectin liposomes
T2 sequence (Q8BN82 1-495): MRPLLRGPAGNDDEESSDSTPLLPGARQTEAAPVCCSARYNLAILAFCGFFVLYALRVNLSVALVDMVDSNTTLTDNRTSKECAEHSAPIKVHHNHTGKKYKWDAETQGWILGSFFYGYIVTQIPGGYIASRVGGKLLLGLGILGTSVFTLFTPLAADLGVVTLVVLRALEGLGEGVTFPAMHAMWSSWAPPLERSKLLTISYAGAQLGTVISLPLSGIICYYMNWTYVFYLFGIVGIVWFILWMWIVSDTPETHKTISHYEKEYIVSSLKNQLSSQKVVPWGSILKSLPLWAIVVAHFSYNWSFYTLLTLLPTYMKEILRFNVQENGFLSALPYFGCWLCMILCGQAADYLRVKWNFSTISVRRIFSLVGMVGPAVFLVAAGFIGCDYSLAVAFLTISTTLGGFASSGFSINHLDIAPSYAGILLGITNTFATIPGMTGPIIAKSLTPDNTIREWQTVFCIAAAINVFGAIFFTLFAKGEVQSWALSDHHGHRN
Excerpt: inhibition of valinomycin-evoked radiolabelled substrate uptake into proteoliposomes on VEAT (vesicular excitatory amino acid transporter)

[3] = target: T3, VGAT (vesicular GABA transporter) (Rattus norvegicus, UniProt O35458); experiment: as above
T3 construct: gene Slc32a1; recombinant, expressed in insect cells or E. coli, Ni-NTA purified, reconstituted in asolectin liposomes
T3 sequence (O35458 1-525): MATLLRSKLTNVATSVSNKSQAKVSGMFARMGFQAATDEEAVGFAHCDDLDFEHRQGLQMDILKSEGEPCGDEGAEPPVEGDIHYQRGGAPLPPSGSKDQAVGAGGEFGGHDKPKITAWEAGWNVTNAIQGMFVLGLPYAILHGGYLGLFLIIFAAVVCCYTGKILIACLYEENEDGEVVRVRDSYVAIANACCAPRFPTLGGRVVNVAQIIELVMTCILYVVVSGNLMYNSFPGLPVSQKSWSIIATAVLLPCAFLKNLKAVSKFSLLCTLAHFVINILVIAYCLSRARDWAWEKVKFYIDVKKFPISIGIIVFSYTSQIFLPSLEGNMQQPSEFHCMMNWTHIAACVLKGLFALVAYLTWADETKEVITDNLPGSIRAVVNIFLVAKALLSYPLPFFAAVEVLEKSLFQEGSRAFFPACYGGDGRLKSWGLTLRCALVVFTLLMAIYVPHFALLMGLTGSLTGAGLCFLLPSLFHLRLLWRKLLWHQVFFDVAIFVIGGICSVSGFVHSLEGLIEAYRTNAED
Excerpt: inhibition of valinomycin-evoked radiolabelled substrate uptake into proteoliposomes on VGAT (vesicular GABA transporter)

[4] = target: T4, VNUT (vesicular nucleotide transporter, SLC17A9 protein) (Homo sapiens, UniProt Q9BYT1); experiment: as above
T4 construct: recombinant, expressed in insect cells or E. coli, octylglucoside-solubilized, Ni-NTA purified, reconstituted in asolectin liposomes
T4 sequence (Q9BYT1 1-436): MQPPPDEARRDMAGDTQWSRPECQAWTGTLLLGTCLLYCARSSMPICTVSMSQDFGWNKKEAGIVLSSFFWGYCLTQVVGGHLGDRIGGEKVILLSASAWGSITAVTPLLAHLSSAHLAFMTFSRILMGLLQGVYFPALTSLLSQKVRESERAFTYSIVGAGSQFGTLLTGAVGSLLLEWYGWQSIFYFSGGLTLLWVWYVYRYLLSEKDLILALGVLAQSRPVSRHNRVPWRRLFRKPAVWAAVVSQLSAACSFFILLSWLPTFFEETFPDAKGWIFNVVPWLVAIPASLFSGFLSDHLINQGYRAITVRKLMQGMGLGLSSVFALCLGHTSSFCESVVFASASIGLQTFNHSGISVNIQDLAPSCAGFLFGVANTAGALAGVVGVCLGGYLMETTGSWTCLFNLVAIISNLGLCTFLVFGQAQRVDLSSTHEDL

[5] = target: T5, VAChT (vesicular acetylcholine transporter) (Homo sapiens, UniProt Q16572); experiment: inhibition of ATP-driven radiolabelled substrate uptake into proteoliposomes with F-ATPase
T5 construct: gene SLC18A3; recombinant, expressed in insect cells or E. coli, Ni-NTA purified, co-reconstituted with bacterial F-ATPase in liposomes
T5 sequence (Q16572 1-532): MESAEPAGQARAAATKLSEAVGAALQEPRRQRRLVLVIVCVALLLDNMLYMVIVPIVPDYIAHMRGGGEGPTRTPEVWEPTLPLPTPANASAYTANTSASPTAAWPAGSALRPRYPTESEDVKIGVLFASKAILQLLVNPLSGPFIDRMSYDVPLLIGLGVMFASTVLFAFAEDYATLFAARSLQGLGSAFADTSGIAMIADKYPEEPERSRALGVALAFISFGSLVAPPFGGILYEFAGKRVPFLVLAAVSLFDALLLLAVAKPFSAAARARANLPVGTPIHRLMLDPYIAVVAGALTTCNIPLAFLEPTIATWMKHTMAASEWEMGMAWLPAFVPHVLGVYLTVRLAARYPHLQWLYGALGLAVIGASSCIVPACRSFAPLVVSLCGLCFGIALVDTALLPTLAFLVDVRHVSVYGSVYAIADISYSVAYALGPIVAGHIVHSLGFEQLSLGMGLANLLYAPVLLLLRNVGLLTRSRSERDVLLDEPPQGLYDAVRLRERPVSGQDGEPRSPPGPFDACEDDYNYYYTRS
Excerpt: inhibition of ATP-driven radiolabelled substrate uptake into proteoliposomes with F-ATPase on VAChT (vesicular acetylcholine transporter)

[6] = read-out: IC50 (μmol/L) / Acetoacetate
[7] = read-out: IC50 (μmol/L) / Glyoxylate

T1 sequence (Q01827 whole entry): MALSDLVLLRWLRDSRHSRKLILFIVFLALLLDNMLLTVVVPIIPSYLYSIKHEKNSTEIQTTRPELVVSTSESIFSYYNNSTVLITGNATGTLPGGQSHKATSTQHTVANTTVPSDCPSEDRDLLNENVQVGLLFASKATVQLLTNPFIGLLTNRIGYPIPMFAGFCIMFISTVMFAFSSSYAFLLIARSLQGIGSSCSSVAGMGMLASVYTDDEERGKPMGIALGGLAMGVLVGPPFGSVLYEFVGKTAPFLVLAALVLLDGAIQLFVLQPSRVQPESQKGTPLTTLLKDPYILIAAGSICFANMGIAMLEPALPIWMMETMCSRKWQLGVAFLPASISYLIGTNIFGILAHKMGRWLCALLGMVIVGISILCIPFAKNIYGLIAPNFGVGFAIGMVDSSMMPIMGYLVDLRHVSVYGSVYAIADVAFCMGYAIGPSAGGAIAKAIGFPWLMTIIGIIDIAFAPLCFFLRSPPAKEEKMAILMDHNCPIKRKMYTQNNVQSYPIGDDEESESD

SMILES	IC50 [1] [µM]	IC50 [2, 6] [µmol/L]	IC50 [3] [µM]	IC50 [4, 6] [µmol/L]	IC50 [5] [µM]	IC50 [2, 7] [µmol/L]	IC50 [4, 7] [µmol/L]
CC(=O)CC(=O)O [acetoacetate]	> 10000	130	> 10000	190	> 10000		
O=CC(=O)O [glyoxylate]	> 10000		> 10000		> 10000	52	4.1
